Literature values as cited in US11203597B2, “Crystalline spirocyclic compound, a dosage form containing, a method for using in treatment of disease, and a method for recrystallizing” (Altavant Sciences GmbH, priority 2018, dated 2021).

Target: T1, TPH1 (Mus musculus, UniProt P17532)
T1 construct: host or cells: mice (in vivo)
T1 sequence (P17532 1-447): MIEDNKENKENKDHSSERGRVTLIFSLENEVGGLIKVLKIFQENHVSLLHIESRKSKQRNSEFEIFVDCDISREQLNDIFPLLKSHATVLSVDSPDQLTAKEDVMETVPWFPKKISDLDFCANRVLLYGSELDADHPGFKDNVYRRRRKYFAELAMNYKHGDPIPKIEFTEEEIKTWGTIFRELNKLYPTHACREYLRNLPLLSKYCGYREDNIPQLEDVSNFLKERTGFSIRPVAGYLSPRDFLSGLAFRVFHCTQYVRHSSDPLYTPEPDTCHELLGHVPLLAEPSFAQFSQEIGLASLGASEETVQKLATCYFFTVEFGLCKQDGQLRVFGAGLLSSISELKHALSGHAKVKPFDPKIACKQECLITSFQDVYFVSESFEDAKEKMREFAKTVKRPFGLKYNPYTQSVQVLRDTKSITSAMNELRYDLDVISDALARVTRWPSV
Conditions: U.S. Pat. No. 9,199,994, Example 63i and Table 27; cited from earlier work

Compound: CCOC(=O)[C@@H]1CC2(CCN(c3cc(O[C@H](c4ccc(Cl)cc4-c4ccccc4)C(F)(F)F)nc(N)n3)CC2)CN1 [(S)-ethyl 8-(2-amino-6-((R)-1-(5-chloro-[1,1′-biphenyl]-2-yl)-2,2,2-trifluoroethoxy)pyrimidin-4-yl)-2,8-diazaspiro[4.5]decane-3-carboxylate]
- efficacy in inhibiting TPH1 in mice: demonstrated
